Key:
Test in all cases: relative viability (nuclei count vs DMSO), 5 days (fraction); higher = more cells survive
Kobe2602 + Vorinostat = compound: C1=CC(=CC=C1NC(=S)NNC2=C(C=C(C=C2[N+](=O)[O-])C(F)(F)F)[N+](=O)[O-])F [Kobe2602] + O=C(CCCCCCC(=O)Nc1ccccc1)NO [Vorinostat] (partner 1 µM)
Method in brief: (§1)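 Medians of duplicate plates are given as relative viability. That measure is the nuclei count in treated wells divided by the count in vehicle wells. Counts were taken on 4× images of lung cancer cell lines in 1536-well plates, 5 days after pin-tool dosing the day after seeding with one drug alone or a fixed anchor-drug dose plus five library-drug doses (not always all listed) in √10 steps.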

Kobe2602 + OSI-027 = compound: C1=CC(=CC=C1NC(=S)NNC2=C(C=C(C=C2[N+](=O)[O-])C(F)(F)F)[N+](=O)[O-])F [Kobe2602] + COc1cccc2cc(-c3nc([C@H]4CC[C@H](C(=O)O)CC4)n4ncnc(N)c34)[nH]c12 [OSI-027] (partner 0.5 µM)
Method in brief: as §1

Kobe2602 + Pemetrexed = compound: C1=CC(=CC=C1NC(=S)NNC2=C(C=C(C=C2[N+](=O)[O-])C(F)(F)F)[N+](=O)[O-])F [Kobe2602] + Nc1nc2[nH]cc(CCc3ccc(C(=O)N[C@@H](CCC(=O)O)C(=O)O)cc3)c2c(=O)[nH]1 [Pemetrexed] (partner 0.2 µM)
Method in brief: as §1

[1] = compound: COc1cc2nccc(Oc3ccc(NC(=O)C4(C(=O)Nc5ccc(F)cc5)CC4)cc3)c2cc1OC [Cabozantinib] + CS(=O)(=O)N1CCN(Cc2cc3nc(-c4cccc5[nH]ncc45)nc(N4CCOCC4)c3s2)CC1 [Pictilisib] (partner 1 µM)
Method in brief: as §1

| Cell Line | relative viability (Kobe2602 + Vorinostat; first compound 0.2 µM) | relative viability (Kobe2602 + Vorinostat; first compound 0.6325 µM) | relative viability (Kobe2602 + Vorinostat; first compound 2 µM) | relative viability (Kobe2602 + Vorinostat; first compound 6.325 µM) | relative viability (Kobe2602 + Vorinostat; first compound 20 µM) | relative viability (Kobe2602 + OSI-027; first compound 0.2 µM) | relative viability (Kobe2602 + OSI-027; first compound 0.6325 µM) | relative viability (Kobe2602 + OSI-027; first compound 2 µM) | relative viability (Kobe2602 + OSI-027; first compound 6.325 µM) | relative viability (Kobe2602 + OSI-027; first compound 20 µM) | relative viability (Kobe2602 + Pemetrexed; first compound 0.2 µM) | relative viability (Kobe2602 + Pemetrexed; first compound 0.6325 µM) | relative viability (Kobe2602 + Pemetrexed; first compound 2 µM) | relative viability (Kobe2602 + Pemetrexed; first compound 6.325 µM) | relative viability (Kobe2602 + Pemetrexed; first compound 20 µM) | relative viability ([1]; first compound 0.02 µM) | relative viability ([1]; first compound 0.06325 µM) | relative viability ([1]; first compound 0.2 µM) | relative viability ([1]; first compound 0.6325 µM) | relative viability ([1]; first compound 2 µM) |
| --- | --- | --- | --- | --- | --- | --- | --- | --- | --- | --- | --- | --- | --- | --- | --- | --- | --- | --- | --- | --- |
| NCI-H1993 | 0.737 | 0.817 | 0.782 | 0.586 | 0.728 | 0.552 | 0.511 | 0.544 | 0.569 | 0.597 | 0.561 | 0.589 | 0.461 | 0.531 | 0.587 | 0.842 | 0.804 | 0.987 | 0.811 | 0.878 |
| NCI-H2009 | 0.715 | 0.783 | 0.763 | 0.752 | 0.692 | 0.568 | 0.737 | 0.591 | 0.637 | 0.452 | 1.02 | 1.03 | 1.09 | 1.02 | 0.979 | 0.979 | 0.882 | 0.882 | 0.754 | 0.959 |
| NCI-H2023 | 0.56 | 0.75 | 0.566 | 0.481 | 0.317 | 0.394 | 0.387 | 0.346 | 0.345 | 0.278 | 0.218 | 0.255 | 0.194 | 0.211 | 0.0788 | 0.189 | 0.228 | 0.22 | 0.206 | 0.2 |
| NCI-H2085 | 0.772 | 0.817 | 0.794 | 0.765 | 0.733 | 0.685 | 0.898 | – | 0.677 | 0.799 | 0.944 | 0.882 | 0.959 | 0.904 | 0.901 | 0.468 | 0.456 | 0.443 | 0.465 | 0.344 |
| NCI-H2087 | 0.628 | 0.799 | 0.64 | 0.714 | 0.568 | 0.695 | 0.544 | 0.501 | 0.574 | 0.652 | 0.649 | 0.653 | 0.584 | 0.698 | 0.649 | 1.01 | 0.976 | 0.906 | 1.01 | 0.854 |
| NCI-H2126 | 0.811 | 0.819 | 0.737 | 0.76 | 0.855 | 0.715 | 0.778 | 0.675 | 0.678 | 0.701 | 0.647 | 0.67 | 0.629 | 0.736 | 0.686 | 0.442 | 0.52 | 0.465 | 0.544 | 0.547 |
| NCI-H2170 | 0.765 | 0.813 | 0.732 | 0.717 | 0.84 | 0.736 | 0.755 | 0.7 | 0.658 | 0.791 | 0.293 | 0.26 | 0.242 | 0.295 | 0.263 | 0.259 | 0.321 | 0.274 | 0.376 | 0.296 |
| NCI-H2228 | 0.649 | 0.744 | 0.522 | 0.425 | 0.611 | 0.658 | 0.684 | 0.549 | 0.416 | 0.722 | 0.369 | 0.356 | 0.339 | 0.344 | 0.35 | 0.539 | 0.544 | 0.551 | 0.455 | 0.331 |

Source: the supplement of paper PMC10307832
